Patent US20240351999A1, “PYRROLYLACYLPIPERIDYLAMINE COMPOUND AND USE THEREOF” (INSTITUTE OF MATERIA MEDICA ,CHINESE ACADEMY OF MEDICAL …, priority 2021, published 2024)
≈ marks a conversion by molar mass, not a printed value. Read-outs that look alike come from different tables or passages of the source.

Assays:
[1] = tested on: Klebsiella pneumoniae KPN-15-1; test: In vitro antibacterial activity (MIC), microbroth dilution; assay type: cell-based; settings: read-out: MIC Klebsiella pneumoniae KPN-15-1
[2] = tested on: Escherichia coli ATCC 35218; test: as above; assay type: cell-based; settings: read-out: MIC Escherichia coli ATCC 35218
[3] = tested on: Pseudomonas aeruginosa ATCC 27853; test: as above; assay type: cell-based; settings: read-out: MIC Pseudomonas aeruginosa ATCC 27853
[4] = tested on: Escherichia coli ECO+ 15-1; test: as above; assay type: cell-based; settings: 18 h, read-out: MIC Escherichia coli ECO+ 15-1
[5] = tested on: Escherichia coli ATCC25922; settings: prior art value; cited from earlier work
[6] = tested on: Staphylococcus aureus ATCC 29213; test: In vitro antibacterial activity (MIC), microbroth dilution; assay type: cell-based; settings: ATCC29213, 37° C., 18 h
[7] = tested on: Escherichia coli ATCC 25922; test: as above; assay type: cell-based; settings: read-out: MIC Escherichia coli ATCC 25922
[8] = tested on: Acinetobacter baumannii ATCC 19606; test: as above; assay type: cell-based; settings: read-out: MIC Acinetobacter baumannii ATCC 19606
[9] = tested on: Staphylococcus aureus (MRSA, ATCC 43300); test: Antibacterial activity in mice, sepsis model; assay type: in vivo, ICR mice; settings: MRSA ATCC 43300 sepsis model
Protocol: (§1) Experimental animals: Beijing Vital River Laboratory Animal Technology Co., Ltd., ICR mice, with a uniform body weight of 20-22 g, and half male and half female.
Model: Sepsis model infected by Staphylococcus aureus (MRSA, ATCC 43300)
Modeling method: mice were infected with […] (diluted with a 5% sterile yeast solution) Staphylococcus aureus (MRSA, ATCC 43300) such that sepsis models of mice were formed (0.5 mL of a bacterial solution was injected intraperitoneally into each mouse).
Experimental scheme: a compound 1 and a positive drug were first dissolved in DMSO, and then diluted with other solvents, wherein a solvent ratio was saline:Tween 80:DMSO=9:0.5:0.5.

[10] = tested on: Staphylococcus aureus ATCC 43300 (MRSA); test: In vitro antibacterial activity (MIC), microbroth dilution; assay type: cell-based; settings: 18 h, read-out: MIC Staphylococcus aureus ATCC 43300 (MRSA)
[11] = tested on: Staphylococcus aureus MRSA 15-1; test: as above; assay type: cell-based; settings: 37° C., 18 h
[12] = Acute toxicity test in mice; assay type: in vivo
From the text: as §1
In a tail vein administration group, there were 10 mice in each group, with half male and half female. In an intragastric administration group and an intraperitoneal administration group, there were four mice in each group, with half male and half female.

[13] = tested on: Staphylococcus epidermidis ATCC 12228; test: In vitro antibacterial activity (MIC), microbroth dilution; assay type: cell-based; settings: ATCC12228, 37° C., 18 h
[14] = tested on: Enterococcus faecalis ATCC 51575; test: as above; assay type: cell-based; settings: ATCC51575, 37° C., 18 h
[15] = tested on: Enterococcus faecium EFM 19-1; test: as above; assay type: cell-based; settings: EFM191, 37° C., 18 h
[16] = tested on: Mycobacterium tuberculosis; test: Activity against Mycobacterium tuberculosis (MIC); assay type: cell-based; settings: read-out: Inhibitory activity (MIC) against Mycobacterium tuberculosis
[17] = tested on: Staphylococcus aureus ATCC 29213; test: In vitro induced drug resistance, 20 generations at sub-MIC; assay type: cell-based; settings: ATCC29213, read-out: MIC value after passage for 20 generations
Protocol: Test method: MIC values of a compound 1 and a control compound DS2969 against Staphylococcus aureus ATCC 29213 were determined by using a microbroth dilution method recommended by operating procedures for antibacterial susceptibility testing of the Clinical and Laboratory Standards Institute (CLSI).
After testing the MIC values, sub-MIC concentrations (1/2 MIC) of bacteria were diluted, and the concentration of the obtained bacterial solution was adjusted to 105 CFU/mL for a next round of MIC value testing. After 24 hours of incubation, bacterial suspensions were prepared by using bacterial suspensions at sub-MIC concentrations of drugs (1/2 MIC), and another MIC testing was performed. This process was repeated for 20 times, and the MIC value for each test was recorded.
The MIC values of the compound 1 and DS2969 inducing Staphylococcus aureus ATCC29213 for 20 generations were recorded, with the number of generations of bacteria induced as an abscissa and the MIC values as an ordinate (as shown in FIG. 1).

[18] = tested on: Clostridium difficile ATCC 9689; test: In vitro antibacterial activity (MIC), microbroth dilution; assay type: cell-based
[19] = tested on: Staphylococcus epidermidis MRSE 15-1; test: as above; assay type: cell-based; settings: 37° C., 18 h
[20] = tested on: Staphylococcus aureus ATCC 25923; test: as above; assay type: cell-based; settings: ATCC25923, 37° C., 18 h
[21] = Pharmacokinetic test in mice; assay type: in vivo; settings: both sexes, ICR, mouse, po, 150 mg/kg intragastric administration; for half-life: read-out: t½z (half-life period) (converted)
Protocol: as §1
Experimental scheme: a compound 1 was administered at a dose of 150 mg/kg (Solvents were as follows: saline:Tween 80:DMSO=9:0.5:0.5) by intragastric administration, and samples were taken by orbital blood sampling or a mode of sampling blood by enucleating eyeballs at 10 min, 20 min, 30 min, 1 h, 3 h, 5 h, 8 h, 24 h, 36 h, and 48 h after administration, plasma concentrations were determined by UPLC, a drug concentration-time curve was plotted, and key pharmacokinetic parameters were calculated.

[22] = Clostridioides difficile, ATCC9689; read-out: MIC Clostridium difficile ATCC 9689

Compound | MIC ([1]; KPN151, 37° C., 18 h) | MIC ([2]; ATCC35218, 37° C., 18 h) | MIC ([3]; ATCC27853, 37° C., 18 h) | MIC ([4]; 37° C.) | MIC [6] | MIC ([7]; ATCC25922, 37° C., 18 h) | MIC ([8]; ATCC19606, 37° C., 18 h) | MIC [11] | MIC [13] | MIC [14] | MIC [15] | MIC [19] | MIC [20] | also measured
COC[C@H](C)NC(=O)c1nc(N2CC[C@@H](NC(=O)c3[nH]c(C)c(Cl)c3Cl)[C@@H](OC)C2)sc1C(=O)O [AZD5099] | > 64 µg/mL | 32 µg/mL (≈ 58.3 µM) | > 64 µg/mL | > 64 µg/mL | 0.03 µg/mL (≈ 0.0547 µM) | 32 µg/mL (≈ 58.3 µM) | > 64 µg/mL | – | – | – | – | – | – | MIC Escherichia coli ATCC25922 (background) [5]: 32 µg/mL (≈ 58.3 µM)
CO[C@H]1CN(c2ccc(C(C)(C)O)nn2)CC[C@H]1NC(=O)c1[nH]c(C)c(Cl)c1Cl [Compound 1, 3,4-dichloro-N-{(3S,4R)-1-[6-(2-hydroxypropan-2-yl)pyridazin-3-yl]-3-methoxypiperidin-4-yl}-5-methyl-IH-pyrrole-2-carboxamide] | 8 µg/mL (≈ 18.1 µM) | 1 µg/mL (≈ 2.26 µM) | 4 µg/mL (≈ 9.04 µM) | 8 µg/mL (≈ 18.1 µM) | 0.008 µg/mL (≈ 0.0181 µM) | 1 µg/mL (≈ 2.26 µM) | 8 µg/mL (≈ 18.1 µM) | ≤ 0.03 µg/mL | ≤ 0.03 µg/mL | ≤ 0.03 µg/mL | ≤ 0.03 µg/mL | ≤ 0.03 µg/mL | ≤ 0.03 µg/mL | In vivo antibacterial activity (survival of mice) ([9]; 50 mg/kg, 1 h after modeling, observed 14 days): significant in vivo antibacterial activity and shows better antibacterial activity than DS2969; ED50 ([9]; Staphylococcus aureus, po, intragastric administration at lower dose): 5 mg/kg; MIC [10]: ≤ 0.03 µg/mL; Survival rate on day 14 ([12]; 95 mg/kg by a tail vein): 60%; Survival rate on day 14 ([12]; 200 mg/kg intraperitoneally): 100%; Survival rate on day 14 ([12]; 800 mg/kg by intragastric administration): 75%; MIC [16]: 0.593 µg/mL (≈ 1.34 µM); MIC [17]: < 1 µg/mL; MIC [18, 22]: 0.25 µg/mL (≈ 0.565 µM); Activity against Clostridium difficile compared with controls ([18]; vs DS2969 and vancomycin): stronger than those of DS2969 and the positive control drug vancomycin; bioavailability ([21]; in vivo, read-out: F (bioavailability)): 86%; half-life ([21]; in vivo): 9.2 h; AUC(0-inf) ([21]; plasma): 933 µg·h/mL; Cmax ([21]; plasma): 49400 ng/mL; Tmax ([21]; plasma): 1 h; AUC(0-t) ([21]; plasma, read-out: AUC (0-48)): 916 µg·h/mL; MRT last ([21]; plasma, read-out: MRT (0-48)): 16.1 h; MRT inf ([21]; plasma, read-out: MRT (0-∞)): 16.9 h; half-life ([21]; plasma): 9.21 h
CO[C@H]1CN(c2nnc(C(C)(C)O)s2)CC[C@H]1NC(=O)c1[nH]c(C)c(Cl)c1Cl [Compound 2, 3,4-Dichloro-N-((3S,4R)-1-(5-(2-hydroxypropan-2-yl)-1,3,4-thiadiazol-2-yl)-3-methoxypiperidin-4-yl)-5-methyl-1H-pyrrole-2-carboxamide] | 16 µg/mL (≈ 35.7 µM) | 1 µg/mL (≈ 2.23 µM) | 8 µg/mL (≈ 17.8 µM) | 16 µg/mL (≈ 35.7 µM) | 0.008 µg/mL (≈ 0.0178 µM) | 2 µg/mL (≈ 4.46 µM) | 16 µg/mL (≈ 35.7 µM) | ≤ 0.03 µg/mL | ≤ 0.03 µg/mL | ≤ 0.03 µg/mL | ≤ 0.03 µg/mL | ≤ 0.03 µg/mL | ≤ 0.03 µg/mL | MIC ([10]; 37° C.): ≤ 0.03 µg/mL; MIC [16]: 0.595 µg/mL (≈ 1.33 µM); MIC [18, 22]: 0.25 µg/mL (≈ 0.558 µM); Activity against Clostridium difficile compared with controls ([18]; vs DS2969 and vancomycin): stronger than those of DS2969 and the positive control drug vancomycin
CO[C@H]1CN(c2cnc(C(C)(C)O)cn2)CC[C@H]1NC(=O)c1[nH]c(C)c(Cl)c1Cl [Compound 4, 3,4-Dichloro-N-((3S,4R)-1-(5-(2-hydroxypropan-2-yl)pyrazin-2-yl)-3-methoxypiperidin-4-yl)-5-methyl-1H-pyrrole-2-carboxamide] | – | – | – | – | 0.25 µg/mL (≈ 0.565 µM) | – | – | – | 0.5 µg/mL (≈ 1.13 µM) | – | – | – | – | –
CO[C@H]1CN(c2ncc(C(C)(C)O)s2)CC[C@H]1NC(=O)c1[nH]c(C)c(Cl)c1Cl [Compound 6, 3,4-Dichloro-N-((3S,4R)-1-(5-(2-hydroxypropan-2-yl)thiazol-2-yl)-3-methoxypiperidin-4-yl)-5-methyl-1H-pyrrole-2-carboxamide] | – | – | – | – | 0.25 µg/mL (≈ 0.559 µM) | – | – | – | 0.25 µg/mL (≈ 0.559 µM) | – | – | – | – | –
CO[C@H]1CN(c2ccc(C3(O)CCCC3)nn2)CC[C@H]1NC(=O)c1[nH]c(C)c(Cl)c1Cl [Compound 7, 3,4-Dichloro-N-((3S,4R)-1-(6-(1-hydroxycyclopentyl)pyridazin-3-yl)-3-methoxypiperidin-4-yl)-5-methyl-1H-pyrrole-2-carboxamide] | – | – | – | – | ≤ 0.03 µg/mL | 8 µg/mL (≈ 17.1 µM) | – | – | 0.125 µg/mL (≈ 0.267 µM) | – | – | – | – | –
CO[C@H]1CN(c2ccc(C3(O)CCCCC3)nn2)CC[C@H]1NC(=O)c1[nH]c(C)c(Cl)c1Cl [Compound 8, 3,4-Dichloro-N-((3S,4R)-1-(6-(1-hydroxycyclohexyl)pyridazin-3-yl)-3-methoxypiperidin-4-yl)-5-methyl-1H-pyrrole-2-carboxamide] | – | – | – | – | ≤ 0.03 µg/mL | 16 µg/mL (≈ 33.2 µM) | – | – | ≤ 0.03 µg/mL | – | – | – | – | –
C[C@H]1COc2c(N3CCN(C)CC3)c(F)cc3c(=O)c(C(=O)O)cn1c23 [Levofloxacin, reference compound] | 0.5 µg/mL (≈ 1.38 µM) | ≤ 0.06 µg/mL | 2 µg/mL (≈ 5.53 µM) | 8 µg/mL (≈ 22.1 µM) | 0.25 µg/mL (≈ 0.692 µM) | ≤ 0.06 µg/mL | 0.25 µg/mL (≈ 0.692 µM) | 16 µg/mL (≈ 44.3 µM) | 0.125 µg/mL (≈ 0.346 µM) | 0.5 µg/mL (≈ 1.38 µM) | 0.5 µg/mL (≈ 1.38 µM) | 4 µg/mL (≈ 11.1 µM) | 0.25 µg/mL (≈ 0.692 µM) | MIC ([10]; 37° C.): 0.25 µg/mL (≈ 0.692 µM)
CN[C@H](CC(C)C)C(=O)N[C@H]1C(=O)N[C@@H](CC(N)=O)C(=O)N[C@H]2C(=O)N[C@H]3C(=O)N[C@H](C(=O)N[C@H](C(=O)O)c4cc(O)cc(O)c4-c4cc3ccc4O)[C@H](O)c3ccc(c(Cl)c3)Oc3cc2cc(c3O[C@@H]2O[C@H](CO)[C@@H](O)[C@H](O)[C@H]2O[C@H]2C[C@](C)(N)[C@H](O)[C@H](C)O2)Oc2ccc(cc2Cl)[C@H]1O [Vancomycin] | – | – | – | – | – | – | – | – | – | – | – | – | – | MIC ([1]; KPN151, 18 h): > 64 µg/mL; MIC ([2]; ATCC35218, 18 h): > 64 µg/mL; MIC ([3]; ATCC27853, 18 h): > 64 µg/mL; MIC [4]: > 64 µg/mL; MIC ([18]; Clostridioides difficile, ATCC9689, read-out: MIC Clostridium difficile ATCC 9689): 2 µg/mL (≈ 1.38 µM); MIC ([7]; ATCC25922, 18 h): > 64 µg/mL; MIC ([8]; ATCC19606, 18 h): > 64 µg/mL
